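96-well plates; 48 h exposure; 5 concentrations. Endpoints by linear interpolation between flanking doses. Not reached: highest tested concentration assigned. The concentration for 50% growth inhibition is given as GI50.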 Active and inactive are the calls of the source. Cut-off read from the data, not from the text of the source: active = GI50 up to about 1.1 µM and inactive = higher.
Columns and labels:
Assay in all cases: NCI tumour cell line growth inhibition, 48 h
A498 = system: A498
BT-549 = system: BT-549
EKVX = system: EKVX
Hs-578T = system: Hs-578T
IGROV-1 = system: IGROV-1
K562 = system: K562
KM12 = system: KM12
LOX IMVI = system: LOX IMVI
MDA-MB-435 = system: MDA-MB-435
MDA-N = system: MDA-N
OVCAR-3 = system: OVCAR-3
RPMI-8226 = system: RPMI-8226
SK-MEL-28 = system: SK-MEL-28
SK-MEL-5 = system: SK-MEL-5
SN12C = system: SN12C
SR = system: SR
T47D = system: T47D
U-251 = system: U-251
UACC-62 = system: UACC-62

Row | Compound | GI50 (A498) | GI50 (BT-549) | GI50 (EKVX) | GI50 (Hs-578T) | GI50 (IGROV-1) | GI50 (K562) | GI50 (KM12) | GI50 (LOX IMVI) | GI50 (MDA-MB-435) | GI50 (MDA-N) | GI50 (OVCAR-3) | GI50 (RPMI-8226) | GI50 (SK-MEL-28) | GI50 (SK-MEL-5) | GI50 (SN12C) | GI50 (SR) | GI50 (T47D) | GI50 (U-251) | GI50 (UACC-62)
1 | O=C(O)c1nc(-c2ccccc2)[nH]c1C(=O)O | 15.4 µM (inactive) | 17.4 µM (inactive) | 17.4 µM (inactive) | 24.8 µM (inactive) | 11.7 µM (inactive) | 3.72 µM (inactive) | 4.65 µM (inactive) | 3.01 µM (inactive) | 8.87 µM (inactive) | 11.8 µM (inactive) | 11.8 µM (inactive) | 1.84 µM (inactive) | 16.6 µM (inactive) | 15.1 µM (inactive) | 13.6 µM (inactive) | 0.0188 µM (active) | 15.3 µM (inactive) | 4.18 µM (inactive) | 17.2 µM (inactive)
2 | Cc1ccc(S(=O)(=O)c2ccsc2NC(=O)c2ccccc2)cc1 | 45.9 µM (inactive) | > 100 µM (inactive) | > 55.6 µM (inactive) | 17.3 µM (inactive) | > 43.3 µM (inactive) | 2.17 µM (inactive) | > 100 µM (inactive) | > 64 µM (inactive) | 3.11 µM (inactive) | 3.39 µM (inactive) | > 100 µM (inactive) | > 100 µM (inactive) | > 100 µM (inactive) | 12.7 µM (inactive) | > 100 µM (inactive) | 4.79 µM (inactive) | > 100 µM (inactive) | 49.3 µM (inactive) | > 100 µM (inactive)
3 | COc1ccc(C(=O)Nc2ccc3oc(-c4ccccc4)nc3c2)cc1 | > 100 µM (inactive) | > 100 µM (inactive) | > 100 µM (inactive) | > 100 µM (inactive) | > 100 µM (inactive) | > 100 µM (inactive) | > 100 µM (inactive) | > 100 µM (inactive) | > 100 µM (inactive) | > 100 µM (inactive) | > 100 µM (inactive) | > 100 µM (inactive) | > 100 µM (inactive) | > 100 µM (inactive) | > 100 µM (inactive) | > 100 µM (inactive) | > 100 µM (inactive) | 61.7 µM (inactive) | > 100 µM (inactive)
4 | COC1=CC(=O)N(C)C(O)C1(C#N)OC1OC(CO)C(O)C(O)C1O (stereo not given) | > 100 µM (inactive) | > 100 µM (inactive) | > 100 µM (inactive) | > 100 µM (inactive) | > 100 µM (inactive) | > 10 µM (inactive) | > 100 µM (inactive) | > 100 µM (inactive) | > 100 µM (inactive) | > 100 µM (inactive) | > 100 µM (inactive) | > 100 µM (inactive) | > 100 µM (inactive) | > 100 µM (inactive) | > 100 µM (inactive) | > 100 µM (inactive) | > 100 µM (inactive) | > 100 µM (inactive) | > 100 µM (inactive)
5 | C/C(=C\c1csc(C)n1)[C@@H]1C[C@@H]2O[C@@H]2CCC[C@H](C)[C@H](O)[C@@H](C)C(=O)C(C)(C)[C@@H](O)CC(=O)O1.C/C(=C\c1csc(C)n1)[C@@H]1C[C@@H]2O[C@]2(C)CCC[C@H](C)[C@H](O)[C@@H](C)C(=O)C(C)(C)[C@@H](O)CC(=O)O1 | 0.0105 µM (active) | 0.0569 µM (active) | 0.0252 µM (active) | 0.00378 µM (active) | 0.00241 µM (active) | 0.00787 µM (active) | 0.00265 µM (active) | 0.00272 µM (active) | 0.000973 µM (active) | 0.000326 µM (active) | 0.00333 µM (active) | 0.00995 µM (active) | 0.00475 µM (active) | 0.00408 µM (active) | 0.00562 µM (active) | 0.00397 µM (active) | 0.0366 µM (active) | 0.0055 µM (active) | 0.00767 µM (active)
6 | CCN1c2cc(Br)cc3[nH]c(=O)n(c23)CCC1C (stereo not given) | 12.3 µM (inactive) | 6.85 µM (inactive) | 1.43 µM (inactive) | 3.46 µM (inactive) | 13.9 µM (inactive) | 5.58 µM (inactive) | 15.1 µM (inactive) | 11.5 µM (inactive) | 4.18 µM (inactive) | 4.89 µM (inactive) | 14.6 µM (inactive) | 10.3 µM (inactive) | 18.7 µM (inactive) | 15.2 µM (inactive) | 16.7 µM (inactive) | 6.56 µM (inactive) | 17.4 µM (inactive) | 14.8 µM (inactive) | 5.16 µM (inactive)
7 | CC(=O)OC/C=C(/C=C/CNC1CCCCC1)OC(C)=O | 19.8 µM (inactive) | 16.9 µM (inactive) | 16.5 µM (inactive) | 36.3 µM (inactive) | 18.6 µM (inactive) | 12.9 µM (inactive) | 15.5 µM (inactive) | 19.1 µM (inactive) | 16 µM (inactive) | 18 µM (inactive) | 17.4 µM (inactive) | 4.83 µM (inactive) | 16.8 µM (inactive) | 17.9 µM (inactive) | 16.7 µM (inactive) | 10.7 µM (inactive) | 7.26 µM (inactive) | 17.8 µM (inactive) | 19.1 µM (inactive)
8 | C[N+]1(CCCCN2c3ccccc3Sc3cc(N=[N+]=[N-])ccc32)CCN(C(=O)CCNC(=O)Cc2ccc(C(=O)c3ccccc3)cc2)CC1 | 26.4 µM (inactive) | 29.2 µM (inactive) | 31.9 µM (inactive) | 34 µM (inactive) | 23.4 µM (inactive) | 7.19 µM (inactive) | 24.3 µM (inactive) | 20.3 µM (inactive) | 26.4 µM (inactive) | 24.8 µM (inactive) | 20.4 µM (inactive) | 18.7 µM (inactive) | 16 µM (inactive) | 20.6 µM (inactive) | 21.2 µM (inactive) | 18.7 µM (inactive) | 21.3 µM (inactive) | 21.6 µM (inactive) | 28.5 µM (inactive)
9 | CCc1n[nH]c(=O)n1N1C(=O)C2CCCCC2C1=O (stereo not given) | > 100 µM (inactive) | > 100 µM (inactive) | > 100 µM (inactive) | > 100 µM (inactive) | > 100 µM (inactive) | > 100 µM (inactive) | > 100 µM (inactive) | > 100 µM (inactive) | > 100 µM (inactive) | > 100 µM (inactive) | > 100 µM (inactive) | > 100 µM (inactive) | > 100 µM (inactive) | > 100 µM (inactive) | > 100 µM (inactive) | > 100 µM (inactive) | > 100 µM (inactive) | > 100 µM (inactive) | > 100 µM (inactive)
10 | CC(=O)OC1(C)CC(C)C(=O)C(C(O)CC2CC(=O)NC(=O)C2)C1 (stereo not given) | 0.0201 µM (active) | 0.0334 µM (active) | 0.0253 µM (active) | 0.0223 µM (active) | 0.031 µM (active) | 0.0178 µM (active) | 0.00746 µM (active) | 0.013 µM (active) | 0.0148 µM (active) | 0.0166 µM (active) | 0.0236 µM (active) | 0.0118 µM (active) | 0.00776 µM (active) | 0.00787 µM (active) | 0.00822 µM (active) | 0.00185 µM (active) | 0.0179 µM (active) | 0.00697 µM (active) | 0.082 µM (active)
